Test results as given in patent US20210317090A1, “AMINO ACID DEPLETION AGENTS AS ANTIPROLIFERATIVE AGENTS” (University of Central Florida Research Foundation, Inc., priority 2018, published 2021).
Where two headings read alike, the source gives them in different places.

What was measured:
L3.6pl cells [1] = test: Attached cell count (hemocytometer) after 72 h; type: cell-based, human
Method: In parallel with the above experiments, a dose dependence experiment was performed looking at how compound 10 at 0, 2, 5 and 7 μM affected L3.6pl cell attachment and cell number after 72 h incubation at 37° C. Successively more detached cells were observed as the concentration of compound 10 increased, particularly from 5 μM to 7 μM.
Cells were incubated with compound 10 for 72 h at 37° C. A 250 μM AG solution was incubated with the cells for 24 h prior to compound addition. Each condition was performed in duplicate.
This example illustrates aspects according to various embodiments pertaining to a 72 h experiment with Compound 10 in L3.6pl cells. Ten milliliters of a cell suspension containing L3.6pl human pancreatic cancer cells (50,000 cells/mL) and aminoguanidine ([…]) were placed in treated plastic Petri dishes (d=9 cm) and incubated overnight at 37° C. After 24 h, the cells were dosed with compound 10 at 2 μM, 5 μM, or 7 μM. (Note: Stock solutions of 10 at 2, 5, and 7 mM were dissolved in phosphate buffered saline (PBS) and were filtered through a 0.2 μm filter prior to use. The experiments were maintained with a total volume of 10.01 mL where 10 mL of the cell suspension was placed in a plastic dish and each compound or the equivalent PBS volume was added to make up the total volume 10.01 mL for each dish. For example, for the control experiment PBS (10 μL) was added to make up the total volume (10 mL+10 μL=10.01 mL). After 72 h incubation, the cells were collected first by pipetting off the supernatant containing floating dead cells from the culture dish as well as media and placing them into 15 mL tubes. The supernatant containing floating cells was centrifuged (4 min at 1,000 rpm). The cell-free supernatant (supernatant #1) was collected into a new 15 mL tube and quantified (˜8.6 mL) and was then stored frozen and was later quantified by LCMS to investigate the media composition of particular polyamine and amino acid analytes. The attached cells on the dish were washed with PBS (5 mL). The PBS wash was removed by suction and additional PBS (2 mL) was added and again suctioned off to provide twice-washed cells still adhered to the dish. Trypsin (2 mL) was then added to each dish and incubated (3-5 min) until all the cells were detached. Fresh media (8 mL) was added to quench the trypsin. The cell solutions were pipetted into separate 15 mL tubes and centrifuged (4 min at 1,000 rpm). The resulting supernatant was removed to provide a pellet. The pellet was suspended in PBS (10 mL) and was counted by a hemocytometer to provide cell counts for each experimental condition. The pellet was then centrifuged (4 min at 1,000 rpm) and the supernatant removed and the remaining pellet was quantified via protein and polyamine analysis.

CHO K1 cells = test: Cytotoxicity dose-response (MTS cell viability) in CHO K1 cells; type: cell-based, Chinese hamster
Method: CHO K1 Studies. Wild type Chinese hamster ovary (CHO K1) cells were chosen to first study the synthetic compounds' impact on polyamine metabolism. The CHO K1 cell line has high polyamine transport activity and was useful in screening compounds for their polyamine transport inhibitor activity. A dose-response curve was obtained for each compound to determine their toxicity in CHO K1 cells after 48 h incubation. Compound 9 (1666.177) was non-toxic up to the highest dose tested (15 μM).
(§1) Regarding the biological studies performed in the following examples, it is noted that CHO K1, CHO-MG, and L3.6pl cells were grown in RPMI 1640 medium supplemented with 10% fetal bovine serum (FBS) and 1% penicillin/streptomycin. All cells were grown at 37° C. under a humidified 5% CO2 atmosphere. Aminoguanidine (1 mM used for CHO K1 and CHOMG cells and 250 μM for L3.6pl) was added to the growth medium to prevent oxidation of the compounds of the bovine serum amine oxidase enzyme that is present in calf serum. The cells used were in early to mid log phase and CHO and CHOMG were plated out at 1000 cells/well, whereas the L3.6pl cells were plated at 500 cells/well in a 96 well plate format.
(§2) This example illustrates aspects according to various embodiments pertaining to IC50 determinations and cell viability studies. Cell growth was assayed in sterile 96-well microtiter plates (Costar 3599, Corning, N.Y.). CHO K1 or CHOMG cells were plated at 1,000 cells/70 μL and L3.6pl cells at 500 cells/70 μL. The drug solutions of appropriate concentration in phosphate buffered saline (PBS) were added 10 μL per well after overnight incubation. After drug exposure (e.g., for 48 h for CHO K1 and CHO-MG and 48 h or 72 h for L3.6pl), cell growth was determined by measuring formazan formation from the 3-(4,5dimethylthiazol-2-yl)-5-(3-carboxymethoxyphenyl)-2-(4-sulfenyl)-2H tetrazolium, inner salt (MTS) using SynergyMx Biotek microplate reader for absorbance (490 nm) measurements.^27 All experiments were run in triplicate.

[2] = tested on: L3.6pl human pancreatic cancer cells; test: Cytotoxicity dose-response (MTS) in L3.6pl cells; type: cell-based; conditions: for IC50: Homo sapiens, L3.6pl cells
Method: L3.6pl Studies. Compounds 9 and 10 were evaluated in the metastatic human pancreatic cancer cell line, L3.6pl. L3.6pl has a K-ras mutation, and high polyamine uptake activity.^7 A dose-response curve was obtained for each compound in L3.6pl cells to determine the 72 h L3.6pl IC50 value, described as the dose at which L3.6pl cells were 50% viable compared to the untreated control.
as §1, §2

L3.6pl cells [3] = test: Intracellular polyamine and Ant-44 levels (N-dansylation, HPLC) in L3.6pl cells; type: cell-based, human; conditions: 3.3 μM compound 10 (SR isomer), FIG. 10I

CC(C)CCN1CCN(C(CNCc2ccccc2)CC2CCCCC2)CC1CC(C)C.Cl.Cl.Cl (stereo not drawn) [Compound 10, Benzyl-{3-cyclohexyl-2-[3-isobutyl-4-(3-methyl-butyl)-piperazin-1-yl]-propyl}-amine trihydrochloride salt]
Cell Count (L3.6pl cells [1]; 2 μM): 9.40 millions | Cell Count (L3.6pl cells [1]; 5 μM): 4.35 millions | loss of the attached cell population (L3.6pl cells [1]; 5 μM): 58% | Cell Count (L3.6pl cells [1]; 7 μM): 2.10 millions | loss of the attached cell population (L3.6pl cells [1]; 7 μM): 80% | toxicity of compound alone (CHO K1 cells; CHO K1, highest concentration tested (5 μM), 48 h): nontoxic | IC50 (CHO K1 cells; Cricetulus griseus, CHO K1 cells, 48 h incubation): 10.8 ± 0.22 µM | IC50 ([2]; 48 h, read-out: 48 h IC50): 3.48 ± 0.3 µM | IC50 ([2]; 72 h, read-out: 72 h IC50): 5.9 ± 0.2 µM | toxicity of compound alone ([2]; L3.6pl, second highest concentration tested (1 μM), 72 h): nontoxic | toxicity to L3.6pl cancer cells relative to CHO K1 and CHO-MG cell lines ([2]; from 48 h IC50 values): approximately three fold more toxic | intracellular levels of polyamine metabolites (L3.6pl cells [3]): lower levels of polyamines and N-acetylspermine
